PubChem BioAssay AID212 (DTP/NCI, 2004)
Values joined by “and” are separate entries in the source; they are usually repeats but may differ in a detail not shown here. Identical values can stand only once. Results filed as inconclusive are left out.

Test system: BDF1 mice, colon carcinoma 38 sc, T/C %
Test: NCI In Vivo Anticancer Drug Screen. Data for tumor model Colon Carcinoma 38 (subcutaneous) in B6D2F1 (BDF1) mice
In short: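 Mice with transplanted tumors are treated with compound or vehicle. Survival or tumor size is then measured in both groups. The ratio of treated to control gives the reported figure.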

[1] = endpoint: median tumor weight (est.), dose: 12.5 mg/kg/injection, schedule: Q07DX002 (ip), vehicle: saline with Tween-80, higher = larger tumour
[2] = endpoint: median tumor weight (est.), dose: 25.0 mg/kg/injection, schedule: Q07DX002 (ip), vehicle: saline with Tween-80, higher = larger tumour
[3] = endpoint: median tumor weight (est.), dose: 50.0 mg/kg/injection, schedule: Q07DX002 (ip), vehicle: saline with Tween-80, higher = larger tumour
[4] = endpoint: median tumor weight (est.), dose: 200.0 mg/kg/injection, schedule: Q07DX002 (ip), vehicle: saline with Tween-80, higher = larger tumour
[5] = endpoint: median tumor weight (est.), dose: 100.0 mg/kg/injection, schedule: Q07DX002 (ip), vehicle: saline with Tween-80, higher = larger tumour
[6] = endpoint: median tumor weight (est.), dose: 25.0 mg/kg/injection, schedule: Q07DX002 (ip), vehicle: Klucel (hydroxypropylcellulose) (HPC), higher = larger tumour
[7] = endpoint: median tumor weight (est.), dose: 200.0 mg/kg/injection, schedule: Q07DX002 (ip), vehicle: Klucel (hydroxypropylcellulose) (HPC), higher = larger tumour

For `COc1cccc2c1C(=O)c1c(O)c3c(c(O)c1C2=O)C[C@H](O)C[C@@H]3OC1CC(N)C(O)C(C)O1` (stereo not given in full), the T/C (endpoint: median tumor weight (est.), dose: 3.38 mg/kg/injection, schedule: Q07DX002 (ip), vehicle: water, higher = larger tumour) was 97 % of control, the T/C (endpoint: median tumor weight (est.), dose: 13.5 mg/kg/injection, schedule: Q07DX002 (ip), vehicle: water, higher = larger tumour) was 108 % of control and the T/C (endpoint: median tumor weight (est.), dose: 15.0 mg/kg/injection, schedule: Q07DX002 (ip), vehicle: saline, higher = larger tumour) was 87 % of control. For the same compound, the T/C (endpoint: median tumor weight (est.), dose: 24.0 mg/kg/injection, schedule: Q07DX002 (ip), vehicle: saline, higher = larger tumour) was 101 % of control, the T/C (endpoint: median tumor weight (est.), dose: 27.0 mg/kg/injection, schedule: Q07DX002 (ip), vehicle: water, higher = larger tumour) was 55 % of control and the T/C (endpoint: median tumor weight (est.), dose: 38.0 mg/kg/injection, schedule: Q07DX002 (ip), vehicle: saline, higher = larger tumour) was 61 % of control.
For `C=C(C)C1C2CC3(C)C4(CO4)C4OC4C3(O)C1C(=O)O2` (stereo not given), the T/C (endpoint: median tumor weight (est.), dose: 0.38 mg/kg/injection, schedule: Q07DX002 (ip), vehicle: Klucel (hydroxypropylcellulose) (HPC), higher = larger tumour) was 81 % of control, the T/C (endpoint: median tumor weight (est.), dose: 0.75 mg/kg/injection, schedule: Q07DX002 (ip), vehicle: Klucel (hydroxypropylcellulose) (HPC), higher = larger tumour) was 104 % of control and the T/C (endpoint: median tumor weight (est.), dose: 1.5 mg/kg/injection, schedule: Q07DX002 (ip), vehicle: Klucel (hydroxypropylcellulose) (HPC), higher = larger tumour) was 112 % of control.
In the case of `CCCCc1ccc2nc(NC(=O)OC)[nH]c2c1`, the T/C [1] is reported as 114 % of control, the T/C [2] is reported as 83 % of control and the T/C [3] is reported as 98 % of control. For the same compound, the T/C [4] was 87 % of control.
With `CCC(=O)Sc1ccccc1C(=O)Nc1ccc(Cl)cc1` the T/C [3] was 120 % of control, the T/C [5] was 104 % of control and the T/C [4] was 114 % of control. The T/C (endpoint: median tumor weight (est.), dose: 400.0 mg/kg/injection, schedule: Q07DX002 (ip), vehicle: saline with Tween-80, higher = larger tumour) was 59 % of control.
For `CCCCCC[Se][Se]CCCCCC`, the T/C (endpoint: median tumor weight (est.), dose: 3.12 mg/kg/injection, schedule: Q07DX002 (ip), vehicle: Klucel (hydroxypropylcellulose) (HPC), higher = larger tumour) was 100 % of control and the T/C [6] was 95 % of control.
With `Cc1ccc(S(=O)(=O)OCOS(=O)(=O)c2ccc(C)cc2)cc1` the T/C (endpoint: median tumor weight (est.), dose: 100.0 mg/kg/injection, schedule: Q07DX002 (ip), vehicle: Klucel (hydroxypropylcellulose) (HPC), higher = larger tumour) was 61 % of control, the T/C [7] was 104 % of control and the T/C (endpoint: median tumor weight (est.), dose: 400.0 mg/kg/injection, schedule: Q07DX002 (ip), vehicle: Klucel (hydroxypropylcellulose) (HPC), higher = larger tumour) was 80 % of control and 93 % of control. For the same compound, the T/C (endpoint: median tumor weight (est.), dose: 1600.0 mg/kg/injection, schedule: Q07DX002 (ip), vehicle: Klucel (hydroxypropylcellulose) (HPC), higher = larger tumour) was 19 % of control and 27 % of control.
For `Nc1nc2c(C(=O)N3CCCC3)nnn2c2ccccc12`, the T/C [1] was 98 % of control, the T/C [2] was 105 % of control and the T/C [3] was 100 % of control. For the same compound, the T/C [5] was 116 % of control.
In the case of `COC(=O)C(Cl)(Cl)N=Nc1c(Cl)cc(Cl)c(C)c1Cl`, the T/C (endpoint: median tumor weight (est.), dose: 12.5 mg/kg/injection, schedule: Q07DX002 (ip), vehicle: saline, higher = larger tumour) is reported as 118 % of control, the T/C (endpoint: median tumor weight (est.), dose: 25.0 mg/kg/injection, schedule: Q07DX002 (ip), vehicle: saline, higher = larger tumour) is reported as 123 % of control and the T/C (endpoint: median tumor weight (est.), dose: 50.0 mg/kg/injection, schedule: Q07DX002 (ip), vehicle: saline, higher = larger tumour) is reported as 123 % of control. The T/C (endpoint: median tumor weight (est.), dose: 200.0 mg/kg/injection, schedule: Q07DX002 (ip), vehicle: saline, higher = larger tumour) was 101 % of control.
`CCCCNC(C)[C@]1(O)Cc2c(O)c3c(c(O)c2[C@@H](OC2CC(N)C(O)C(C)O2)C1)C(=O)c1c(OC)cccc1C3=O` (stereo not given in full) was tested, and the T/C (endpoint: median survival time, dose: 16.0 mg/kg/injection, schedule: Q07DX002 (sc), vehicle: saline, higher = longer survival) was 113 % of control, the T/C (endpoint: median survival time, dose: 26.0 mg/kg/injection, schedule: Q07DX002 (sc), vehicle: saline, higher = longer survival) was 151 % of control and the T/C (endpoint: median tumor weight (est.), dose: 3.38 mg/kg/injection, schedule: Q07DX002 (ip), vehicle: saline, higher = larger tumour) was 89 % of control. The T/C (endpoint: median tumor weight (est.), dose: 6.75 mg/kg/injection, schedule: Q07DX002 (ip), vehicle: saline, higher = larger tumour) was 88 % of control and the T/C (endpoint: median tumor weight (est.), dose: 13.5 mg/kg/injection, schedule: Q07DX002 (ip), vehicle: saline, higher = larger tumour) was 81 % of control.
For `COc1ccc(C(Cn2ccnc2)Sc2ccc(Cl)c(Cl)c2)cc1` (stereo not given), the T/C [2] was 63 % of control and 87 % of control and the T/C [5] was 114 % of control.
With `Cc1nn(CCO)c(C)c1N=[N+]([O-])c1c(C)nn(CCO)c1C` the T/C (endpoint: median tumor weight (est.), dose: 6.25 mg/kg/injection, schedule: Q07DX002 (ip), vehicle: Klucel (hydroxypropylcellulose) (HPC), higher = larger tumour) was 116 % of control, the T/C (endpoint: median tumor weight (est.), dose: 6.25 mg/kg/injection, schedule: Q07DX002 (ip), vehicle: saline with Tween-80, higher = larger tumour) was 102 % of control and the T/C (endpoint: median tumor weight (est.), dose: 12.5 mg/kg/injection, schedule: Q07DX002 (ip), vehicle: Klucel (hydroxypropylcellulose) (HPC), higher = larger tumour) was 86 % of control. For the same compound, the T/C [1] was 98 % of control, the T/C [6] was 108 % of control and 91 % of control and the T/C (endpoint: median tumor weight (est.), dose: 50.0 mg/kg/injection, schedule: Q07DX002 (ip), vehicle: Klucel (hydroxypropylcellulose) (HPC), higher = larger tumour) was 100 % of control and 104 % of control. The T/C [3] was 86 % of control, the T/C [7] was 24 % of control and the T/C [4] was 79 % of control.
For `Nc1nc2n[nH]nc2c(=O)[nH]1`, the T/C (endpoint: median tumor weight (est.), dose: 50.0 mg/kg/injection, schedule: Q07DX002 (ip), vehicle: suspension in saline, higher = larger tumour) was 64 % of control, the T/C (endpoint: median tumor weight (est.), dose: 100.0 mg/kg/injection, schedule: Q07DX002 (ip), vehicle: suspension in saline, higher = larger tumour) was 80 % of control and the T/C (endpoint: median tumor weight (est.), dose: 200.0 mg/kg/injection, schedule: Q07DX002 (ip), vehicle: suspension in saline, higher = larger tumour) was 57 % of control. The T/C (endpoint: median tumor weight (est.), dose: 400.0 mg/kg/injection, schedule: Q07DX002 (ip), vehicle: suspension in saline, higher = larger tumour) was 51 % of control.
For `O=C1NC2(CCCCC2)C(=O)N1CCN(CCCl)CCCl`, the T/C (endpoint: median tumor weight (est.), dose: 8.0 mg/kg/injection, schedule: Q07DX003 (ip), vehicle: Klucel (hydroxypropylcellulose) (HPC), higher = larger tumour) was 60 % of control, the T/C (endpoint: median tumor weight (est.), dose: 16.0 mg/kg/injection, schedule: Q07DX003 (ip), vehicle: Klucel (hydroxypropylcellulose) (HPC), higher = larger tumour) was 69 % of control and 88 % of control and the T/C (endpoint: median tumor weight (est.), dose: 32.0 mg/kg/injection, schedule: Q07DX003 (ip), vehicle: Klucel (hydroxypropylcellulose) (HPC), higher = larger tumour) was 38 % of control and 62 % of control. For the same compound, the T/C (endpoint: median tumor weight (est.), dose: 64.0 mg/kg/injection, schedule: Q07DX003 (ip), vehicle: Klucel (hydroxypropylcellulose) (HPC), higher = larger tumour) was 28 % of control.
For `N#CC(OC1OC(COC2OC(CO)C(O)C(O)C2O)C(O)C(O)C1O)c1ccccc1` (stereo not given), the T/C (endpoint: median tumor weight (est.), dose: 50.0 mg/kg/injection, schedule: Q07DX002 (ip), vehicle: water, higher = larger tumour) was 98 % of control, the T/C (endpoint: median tumor weight (est.), dose: 100.0 mg/kg/injection, schedule: Q07DX002 (ip), vehicle: water, higher = larger tumour) was 87 % of control and the T/C (endpoint: median tumor weight (est.), dose: 200.0 mg/kg/injection, schedule: Q07DX002 (ip), vehicle: water, higher = larger tumour) was 112 % of control. For the same compound, the T/C (endpoint: median tumor weight (est.), dose: 400.0 mg/kg/injection, schedule: Q07DX002 (ip), vehicle: water, higher = larger tumour) was 102 % of control and the T/C (endpoint: median tumor weight (est.), dose: 1600.0 mg/kg/injection, schedule: Q07DX002 (ip), vehicle: water, higher = larger tumour) was 91 % of control.
